“Also recorded” adds a separate entry of the source.
How the values were obtained:
[1] = biological target: T1, Labeled Rabbit Muscle Actin (Oryctolagus cuniculus, UniProt P68135); test: In vitro actin depolymerization assay; type: biochemical; settings: 5 µM
T1 construct: purchased Abcam (Actin Polymerization/Depolymerization Assay Kit)
Description: The ability of the tested compounds to interfere with the actin polymerization and depolymerization reaction was measured using an Actin Polymerization/Depolymerization Assay Kit purchased from Abcam, following the manufacturer’s instructions. […] For the polymerization assay, reconstituted actin was mixed with supplemented Buffer G and samples in a white 96-well plate and then the polymerization reaction was induced with the addition of the Buffer P supplemented with 10 mM ATP. The solution was mixed and the data acquisition started. For the Actin Depolymerization Assay, supplemented Buffers P and G were mixed and incubated in a white 96-well plate at room temperature for one hour to polymerize the actin, protected from light. Then samples were added and the data acquisition started. Latrunculin A and Cytochalasin B were used as control molecules at a concentration of 5 μM. For both the assays, the assembly of actin filaments was determined by measuring the fluorescence (Ex/Em: 365/410 nm) in kinetic mode for 1 h at room temperature using a microplate reader.

Hek-293 cells = test: MTT assay, normal Hek-293; type: cell-based, human; settings: MTT, 72 h; normal cells; mean ± SD; read-out: IC50 Hek-293
Description: (§1) The five employed cell lines were purchased from American Type Culture Collection (ATCC, Manassas, VA, USA) and maintained as already reported. […] SkBr3 cells were maintained in DMEM high glucose, supplemented with 10% FBS and 100 μg/mL penicillin/streptomycin.
(§2) MTT assays [Sigma Aldrich (St.Louis, MO, USA)] were used in order to determine the in vitro anticancer activities of all the target compounds, as already reported.The compounds were tested at different concentrations (0.1-1-10-20-40 µM) for 72 h. Results are represented as percent (%) of basal and the IC50 values were calculated using GraphPad Prism 9 (GraphPad Software, La Jolla, CA, USA).

[2] = tested on: vimentin in MCF-10A cells; test: Vimentin expression (immunofluorescence, Western blot), MCF-10A; type: cell-based, human; settings: IC50 values, 24 h; immunofluorescence and Western blot quantification
Description: (§3) The MitoTracker Deep Red FM probe (MitoTracker Mitochondrion-Selective Probes, Invitrogen European Headquarters, Paisley, PA4 9RF, UK) was used for mitochondrial staining, as previously described. For immunofluorescence analysis, the cells were seeded and further processed, as reported by Iacopetta et al.. The primary antibodies used were: rabbit anti-β-Actin and vimentin (Santa Cruz Biotechnology, Dallas, TX, USA), mouse anti cytochrome c and NF-κB p65 (Abcam, Cambridge, UK), diluted 1:100 in bovine serum albumin (BSA) 2% overnight at 4 °C. The secondary antibodies were: Alexa Fluor® 488 conjugate goat-anti-rabbit and Alexa Fluor® 568 conjugate goat-anti-mouse (Thermo Fisher Scientific, MA, USA), diluted 1:500 and incubated for 2h at 37 °C. DAPI 0.2 μg/mL (Sigma Aldrich, Milan, Italy) was used for nuclei staining. […] All the images were acquired and processed using the LAS-X software.
Protein lysates underwent the SDS-PAGE process, as already defined. […]
(CTRL) for 24 h. After treatment, the cells were further processed, observed and imaged under the inverted fluorescence microscope at 20x m agnification (for mo re details see Materi als and M ethods). […]
and processed as reported in the Experimental Section. […] (d) Western blots quantification carried out using […]

[3] = LogP determination (1-octanol/water, UV/vis); type: physicochemical; settings: log[complex]oct/[complex]H2O, 55 μM, UV-Vis
Description: The logarithm of the partition coefficient (LogP) was evaluated by making a slight modification to the procedure reported in ref. [79]. Equal volumes of 1-octanol and water (distilled after milli-Q purification) were stirred for 20 h at room temperature. Then, they were separated to give 1-octanol-saturated water and water-saturated 1-octanol. Six (10, 20, 40, 50, 60 and 100 μM) standard concentrations of the compounds were prepared from the water-saturated 1-octanol. Analysis using UV/vis spectroscopy was used to obtain a calibration curve of absorbance vs. concentration. For each complex, a solution was prepared in the water-saturated 1-octanol (55 μM) and an equal volume of 1-octanol-saturated water was added. The solutions (biphasic) were mixed for 15 min and then centrifuged for 1h at 6500 rpm to allow separation.
Concentration in water-saturated 1-octanol was determined by UV-Vis spectroscopy. Reported LogP is defined as log[complex]oct/[complex]H2O.

[4] = tested on: cytochrome c in MCF-10A cells; test: Mitochondria staining and cytochrome c detection, MCF-10A; type: cell-based, human; settings: IC50 value, 24 h
Description: as §3
I: Figure S5. Mitochondria staining and cytochrome c detection in MCF-10A cells
Figure S5. Mitochondria staining and cytochrome c detection in MCF-10A cells. Figure S5.
Mitochondria staining and cytochrome c detection in MCF-10A cells. In th e CTRL cells as well as
Panels A, DAP I λex/em= 350/460 nm; Panels B, Alexa Fluor CF 488 λex/em=
490/515 nm; Panels C, MitoTracker Deep Red FM probe λex/em= 644/665 nm. Panels D: overlay
channels. Images were acquired at 40x magnification and representative fields are shown.

MCF-10A cells = test: MTT assay, normal MCF-10A; type: cell-based, human; settings: MTT; for IC50: 72 h, normal cells, mean ± SD, read-out: IC50 MCF-10A
Description: as §1
[…] Results are represented as percent (%) of basal and the IC50 values were calculated using GraphPad Prism 9 (GraphPad Software, La Jolla, CA, USA).

SkBr3 cells = test: MTT assay, SkBr3; type: cell-based, human; settings: MTT, 72 h; mean ± SD; read-out: IC50 SkBr3
Description: (§4) The five employed cell lines were purchased from American Type Culture Collection (ATCC, Manassas, VA, USA) and maintained as already reported. MCF-7, MDA-MB-231, MCF-10A and Hek-293 were cultured, as indicated by Iacopetta et al.. SkBr3 cells were maintained in DMEM high glucose, supplemented with 10% FBS and 100 μg/mL penicillin/streptomycin.
as §2

MCF-7 cells = test: MTT assay, MCF-7; type: cell-based, human; settings: MTT, 72 h; mean ± SD; read-out: IC50 MCF-7
Description: as §4, §2

[5] = biological target: T2, human topoisomerase II (hTopo II) (Homo sapiens, UniProt P11388); test: hTopo II decatenation assay; type: biochemical; settings: 1 μM; kDNA, agarose gel
T2 construct: purchased TopoGEN, Port Orange, FL
T2 sequence (P11388 whole entry): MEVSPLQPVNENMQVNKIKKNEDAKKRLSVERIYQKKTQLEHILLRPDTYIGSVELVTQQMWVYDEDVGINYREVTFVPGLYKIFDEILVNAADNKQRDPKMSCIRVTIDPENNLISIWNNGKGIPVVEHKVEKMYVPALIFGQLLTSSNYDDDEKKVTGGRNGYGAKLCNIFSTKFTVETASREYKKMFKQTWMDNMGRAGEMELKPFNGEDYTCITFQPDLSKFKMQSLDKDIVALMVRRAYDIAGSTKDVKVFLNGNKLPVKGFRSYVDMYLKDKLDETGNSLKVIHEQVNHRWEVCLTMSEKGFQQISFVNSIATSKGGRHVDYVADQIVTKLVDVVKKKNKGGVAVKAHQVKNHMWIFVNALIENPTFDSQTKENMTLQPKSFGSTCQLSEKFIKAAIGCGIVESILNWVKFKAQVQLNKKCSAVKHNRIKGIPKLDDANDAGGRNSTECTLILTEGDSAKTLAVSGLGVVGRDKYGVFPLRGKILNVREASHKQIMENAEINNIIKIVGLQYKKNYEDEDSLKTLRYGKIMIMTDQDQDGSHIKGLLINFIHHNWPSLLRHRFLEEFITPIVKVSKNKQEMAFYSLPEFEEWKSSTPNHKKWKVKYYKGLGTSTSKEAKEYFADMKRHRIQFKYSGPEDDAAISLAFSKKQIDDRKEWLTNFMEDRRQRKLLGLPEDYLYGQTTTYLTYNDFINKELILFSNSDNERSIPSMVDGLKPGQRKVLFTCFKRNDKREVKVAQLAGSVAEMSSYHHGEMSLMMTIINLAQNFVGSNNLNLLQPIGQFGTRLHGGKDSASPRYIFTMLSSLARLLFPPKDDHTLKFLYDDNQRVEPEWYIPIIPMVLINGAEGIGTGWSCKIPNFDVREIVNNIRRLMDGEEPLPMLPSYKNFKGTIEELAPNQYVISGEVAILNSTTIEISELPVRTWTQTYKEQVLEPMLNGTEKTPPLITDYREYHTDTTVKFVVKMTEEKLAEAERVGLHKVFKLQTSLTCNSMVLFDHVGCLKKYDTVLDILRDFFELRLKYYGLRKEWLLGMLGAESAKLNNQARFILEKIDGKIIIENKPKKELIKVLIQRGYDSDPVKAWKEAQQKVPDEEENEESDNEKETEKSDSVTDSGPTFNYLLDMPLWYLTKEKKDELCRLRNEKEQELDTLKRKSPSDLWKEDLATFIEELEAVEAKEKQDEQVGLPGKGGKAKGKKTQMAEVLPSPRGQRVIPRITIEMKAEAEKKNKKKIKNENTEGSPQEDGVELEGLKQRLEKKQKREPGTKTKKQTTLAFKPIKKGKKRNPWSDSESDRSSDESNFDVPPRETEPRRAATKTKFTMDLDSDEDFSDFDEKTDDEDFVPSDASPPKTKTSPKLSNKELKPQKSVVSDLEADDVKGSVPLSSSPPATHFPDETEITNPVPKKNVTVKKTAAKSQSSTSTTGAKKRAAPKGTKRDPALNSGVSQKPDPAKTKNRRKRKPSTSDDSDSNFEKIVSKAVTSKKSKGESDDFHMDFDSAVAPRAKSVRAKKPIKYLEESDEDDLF

SMILES | effect on already polymerized actin (in words) [1] | IC50 (Hek-293 cells) [µM] | vimentin expression vs CTRL, MCF-10A [2] | LogP [3] | cytochrome c localization, MCF-10A [4] | IC50 (MCF-10A cells) [µM] | cytotoxicity against the normal MCF-10A cells (in words) (MCF-10A cells; up to the concentration of 200 μM) | IC50 (SkBr3 cells) [µM] | IC50 (MCF-7 cells) [µM] | inhibition of hTopo II decatenation activity [5]
Cn1ccn(CC([O-])c2ccccc2)[c]1=[Au+]=[c]1n(C)ccn1CC([O-])c1ccccc1.[Cl-].[Na+].[Na+] (stereo not shown) [Compound 1] | did not produce a significant decrease | > 200 | not significant | 0.079 | within mitochondria | > 200 | complete lack of cytotoxicity; also recorded: completely lack of cytotoxicity | 83 ± 1 | 29.9 ± 1.1 | totally inhibited
CC(=O)[O-].Cn1c(Cl)c(Cl)n(CC(O)c2ccccc2)[c]1=[Au+]=[c]1n(C)c(Cl)c(Cl)n1CC(O)c1ccccc1 (stereo not shown) [Compound 6, Bis [4,5-dichloro-(N-methyl, N’(2-hydroxy-2-phenyl-ethyl)imidazole-2-ylidine]gold(I)] acetate] | did not produce a significant decrease | 32.5 ± 1.1 | not significant | 0.78 | within mitochondria | 24.4 ± 0.9 |  | 2.3 ± 0.9 | 1.2 ± 0.3 | totally inhibited

Reference: article PMC9146163, “Novel Au Carbene Complexes as Promising Multi-Target Agents in Breast Cancer Treatment” (Pharmaceuticals, 2022)
